Source: US20160367961A1, “METHOD AND COMPOSITION FOR PEPTIDE C[…] PROTEASE TREATMENT” (Roche Sequencing Solutions, Inc., priority 2015, published 2016)
Square brackets hold non-standard residues; d marks the D form. Peptide text beside a SMILES is read from it.

Key:
streptavidin = streptavidin (Streptomyces avidinii, UniProt P22629); assay: biochemical
Protocol: Surface plasmon resonance (SPR) experiments were performed on a BIAcore X100 (GE Healthcare). The running buffer was HBS-EP+. To prepare a streptavidin coated chip, 100 ug/mL streptavidin in Acetate 5.0 immobilization buffer was coupled to flow cell 2 of a CM5 chip using the Amine Coupling Kit (GE Healthcare. The chip was then conditioned by flowing a solution containing 0.2 M NaCl and 10 mM NaOH in water over the prepared chip for 60 seconds. The binding affinities of the cyclic and linear peptides were measured against the prepared streptavidin chip using a multiple cycle experiment with base regeneration between each step. Here, seven prepared concentrations of peptide in HBS-EP+ buffer were flowed over the streptavidin chip for 30 seconds and then allowed to dissociate for 60 seconds. Following each peptide concentration, the streptavidin chip was regenerated by flowing 0.2 M NaCl and 10 mM NaOH in water over the chip for 30 seconds followed by a stabilization period of 120 seconds. Kinetic parameters were determined using BIAcore X100 Evaluation Software Version 2.0.1.

streptavidin-Cy5 = streptavidin-Cy5 (Streptomyces avidinii, UniProt P22629); assay: Streptavidin-Cy5 binding to cyclic/linear peptide microarray, Cy5 fluorescence scan
Protocol: Slides were bound with […] streptavidin-Cy5 in 30 mL binding buffer for 30 minutes at room temperature. Binding buffer contained 1% alkali soluble casein and 0.05% tween-20 in 1×TBS, pH 7.4. After 30 minutes, slides were washed twice in 1×TBS buffer for 1 minute, water for 30 seconds, and spun to dryness.
Cy5 fluorescence intensity of the arrays was measured with MS200 scanner (Roche NimbleGen) at resolution 2 um, wavelength 635 nm, gain 25% and laser intensity 100%. Cy5 signal intensities were extracted using Image Extraction Software (Roche NimbleGen). Data pre-processing, normalization and statistical tests were done in R. Data visualization and analysis were performed with Spotfire 6.5.0 (Tibco, Boston, Mass.) software platform.

[1] = extension of HPQ-specific design JXXHPQXXJU, all J combinations (Example 12), FIG. 15

Sequence of streptavidin-Cy5 (P22629 25-183): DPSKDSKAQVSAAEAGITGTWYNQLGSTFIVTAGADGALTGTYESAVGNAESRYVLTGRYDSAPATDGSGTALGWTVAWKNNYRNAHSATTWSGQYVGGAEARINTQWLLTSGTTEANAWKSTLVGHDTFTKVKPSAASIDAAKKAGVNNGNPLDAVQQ
Sequence of streptavidin (P22629 25-183, species assumed): as the sequence (P22629 25-183) above

| Molecule | Kd (streptavidin) [µM] | further results |
| --- | --- | --- |
| CC(C)C[C@@H]1NC(=O)[C@H](CCC(N)=O)NC(=O)CNC(=O)CNC(=O)[C@H](CC(N)=O)NC(=O)[C@H](CCC(N)=O)NC(=O)[C@@H]2CCCN2C(=O)[C@H](Cc2c[nH]cn2)NC(=O)[C@H](CC(=O)O)NC(=O)[C@H](Cc2ccc(O)cc2)NC1=O [cyclic LYDHPQNGGQ, LYDHPQNGGQ] (cyclo(DHPQNGGQLY)) | 9.4 | – |
| NC(=O)CC[C@@H]1NC(=O)[C@H](Cc2c[nH]c3ccccc23)NC(=O)[C@H]2CCCN2C(=O)[C@H](CCC(N)=O)NC(=O)[C@H](CC(N)=O)NC1=O [cyclic NQpWQ, NQpWQ] (cyclo(NQ[dP]WQ)) | 61.3 | – |
| NC(=O)CC[C@@H]1NC(=O)CNC(=O)CNC(=O)[C@H](CC(N)=O)NC(=O)[C@H](CCC(N)=O)NC(=O)[C@@H]2CCCN2C(=O)[C@H](Cc2c[nH]cn2)NC(=O)[C@H](CC(=O)O)NC(=O)[C@H](CC(N)=O)NC(=O)[C@H](CCC(N)=O)NC1=O [cyclic QNDHPQNGGQ, QNDHPQNGGQ] (cyclo(DHPQNGGQQN)) | 10.8 | – |
| NC(=O)CC[C@H](NC(=O)[C@H](Cc1c[nH]c2ccccc12)NC(=O)[C@H]1CCCN1C(=O)[C@H](CCC(N)=O)NC(=O)[C@@H](N)CC(N)=O)C(=O)O [linear NH2-NQpWQ-COOH, NH2-NQpWQ-COOH] (H-NQ[dP]WQ-OH) | > 2000 | – |
| H-LYDHPQNGGQ-OH [linear NH2-LYDHPQNGGQ-COOH, NH2-LYDHPQNGGQ-COOH] | 100 | – |
| H-QNDHPQNGGQ-OH [linear NH2-QNDHPQNGGQ-COOH, NH2-QNDHPQNGGQ-COOH] | 320 | – |
| LYDHPQNGGU (cyclo(LYDHPQNGGE); also: position 10: U in name, array-bound via glutamate side chain) [cylic LYDHPQNGGU, U = glutamate attached to the surface through its side chain] | – | cyclic fluorescent intensity (streptavidin-Cy5; [1]): highest cyclic intensity |
| NQpWU (cyclo(NQ[dP]WE); also: position 5: U in name, array-bound via glutamate side chain) [cylic NQpWU, U = glutamate attached to the surface through its side chain, p = D-proline] | – | cyclic fluorescent intensity (streptavidin-Cy5; peptide library of the format XXXXU (Example 9), cyclic subarray, FIG. 10): highest cyclic fluorescent intensity |
| QNDHPQNGGU (cyclo(QNDHPQNGGE); also: position 10: U in name, array-bound via glutamate side chain) [cyclic QNDHPQNGGU, U = glutamate attached to the surface through its side chain] | – | log fold change (logFC) between cyclic and linear fluorescent intensity (streptavidin-Cy5; extension of HPQ-specific design JXXHPQXXJU (Example 12), FIG. 15, positive logFC = preference for cyclic peptide): high logFC; cyclic fluorescent intensity (streptavidin-Cy5; [1]): high cyclic intensitiy |
